Data as given in ChEMBL document CHEMBL5236632, “Membrane-Active Nonivamide Derivatives as Effective Broad-Spectrum Antimicrobials: Rational Design, Synthesis, and Biological Evaluation” (J Med Chem, 2022).
Converted amounts (≈) assume the structure as drawn. The source made the active and inactive calls. No cut-off for these calls is given here.

Key:
Escherichia coli [1] = assay: Antibacterial activity against Escherichia coli ATCC 25922 assessed as reduction in bacterial load at 8 time of MIC measured with in 30 mins by time kill assay; format: functional; settings: 0.5 h
Escherichia coli [2] = assay: Drug resistance development in Escherichia coli ATCC 25922 assessed as fold change in MIC measured after 20 passages; format: functional
Staphylococcus aureus [3] = assay: Antibacterial activity against Staphylococcus aureus ATCC 29213 assessed as inhibition of visible growth measured after 18 to 24 hrs by broth dilution method; format: functional; settings: time 18-24 hrs
Staphylococcus aureus [4] = assay: Antibacterial activity against methicillin-resistant Staphylococcus aureus NCTC 10442 assessed as inhibition of visible growth measured after 18 to 24 hrs by broth dilution method; format: functional; settings: time 18-24 hrs
Staphylococcus aureus [5] = assay: Antibacterial activity against methicillin-resistant Staphylococcus aureus N315 assessed as inhibition of visible growth measured after 18 to 24 hrs by broth dilution method; format: functional; settings: time 18-24 hrs
Escherichia coli [6] = assay: Antibacterial activity against Escherichia coli ATCC 25922 assessed as inhibition of visible growth measured after 18 to 24 hrs by broth dilution method; format: functional; settings: time 18-24 hrs
[7] = Haemolytic activity in rabbit red blood cells incubated for 60 mins by k multi-mode reader relative to control; format: toxicity, cell-based, Oryctolagus cuniculus, Erythrocyte
Pseudomonas aeruginosa = assay: Antibacterial activity against Pseudomonas aeruginosa ATCC 9027 assessed as inhibition of visible growth measured after 18 to 24 hrs by broth dilution method; format: functional; settings: time 18-24 hrs
Acinetobacter baumannii [8] = assay: Antibacterial activity against Acinetobacter baumannii ATCC 17978 assessed as inhibition of visible growth measured after 18 to 24 hrs by broth dilution method; format: functional; settings: time 18-24 hrs
Acinetobacter baumannii [9] = assay: Antibacterial activity against Acinetobacter baumannii R2889 assessed as inhibition of visible growth measured after 18 to 24 hrs by broth dilution method; format: functional; settings: time 18-24 hrs
Klebsiella pneumoniae [10] = assay: Antibacterial activity against Klebsiella pneumoniae ATCC 10031 assessed as inhibition of visible growth measured after 18 to 24 hrs by broth dilution method; format: functional; settings: time 18-24 hrs
Klebsiella pneumoniae [11] = assay: Antibacterial activity against Klebsiella pneumoniae ATCC 14581 assessed as inhibition of visible growth measured after 18 to 24 hrs by broth dilution method; format: functional; settings: time 18-24 hrs
[12] = Selectivity ratio, HC50 for hemolytic activity in rabbit RBC to MIC for antibacterial activity against Pseudomonas aeruginosa ATCC 9027; format: toxicity; settings: erythrocytes
Cell membrane [13] = assay: Induction of outer membrane permeability in Escherichia coli ATCC 25922 assessed as increase fluoresence intensity at 4 to 8 times of MIC measured for 60 mins by NPN uptake assay; format: subcellular
Cell membrane [14] = assay: Induction of membrane depolarization in Staphylococcus aureus ATCC 29213 assessed as increase in fluorescence intensity at 4 to 8 times MIC measured for 60 mins by DiSC3(5) dye based fluorescence method; format: subcellular
Cell membrane [15] = assay: Induction of membrane depolarization in Escherichia coli ATCC 25922 assessed as increase in fluorescence intensity at 4 to 8 times MIC measured for 60 mins by DiSC3(5) dye based fluorescence method; format: subcellular
[16] = Cytotoxicity against mouse NCTC clone 929 cells assessed as cell viability after 24 hrs incubation byCCK-8 assay; format: toxicity, cell-based
[17] = Cytotoxicity against HEK293 cells assessed as cell viability after 24 hrs incubation byCCK-8 assay; format: toxicity, cell-based; settings: human

SMILES: CC1(C)S[C@@H]2[C@H](NC(=O)[C@H](N)c3ccc(O)cc3)C(=O)N2[C@H]1C(=O)O [AMOXICILLIN]
- Activity (Escherichia coli [1]): 0.29 log10CFU/ml
- fold change (FC) (Escherichia coli [2]): 16

SMILES: CCCCCCCCC(=O)NCc1ccc(O)c(OC)c1 [NONIVAMIDE]
- MIC (Staphylococcus aureus [3]): > 50 µg/mL
- MIC (Staphylococcus aureus [4]): > 50 µg/mL
- MIC (Staphylococcus aureus [5]): > 50 µg/mL
- MIC (Escherichia coli [6]): > 50 µg/mL
- HC5 ([7]; erythrocyte, 1 h): > 200 µg/mL
- HC50 at 1 h ([7]; rabbit red blood cells): > 200 µg/mL
- MIC (Pseudomonas aeruginosa): > 50 µg/mL
- MIC (Acinetobacter baumannii [8]): > 50 µg/mL
- MIC (Acinetobacter baumannii [9]): > 50 µg/mL
- MIC (Klebsiella pneumoniae [10]): > 50 µg/mL
- MIC (Klebsiella pneumoniae [11]): > 50 µg/mL
- MIC [12]: > 50 µg/mL
- Activity (Cell membrane [13]): inactive
- Activity (Cell membrane [14]): inactive
- Activity (Cell membrane [15]): inactive
- CC50 at 24 h [16]: 59 µg/mL (≈ 201 µM)
- CC50 at 24 h [17]: 62 µg/mL (≈ 211 µM)
